{
  "source": "patent US20150087682A1",
  "about": "“Method for Treating Scleroderma” (The Regents of the University of Colorado, A body corporate, priority 2012, published 2015)",
  "target": "TLR4 (Homo sapiens, UniProt O00206)",
  "sequence (O00206 24-839, species assumed)": "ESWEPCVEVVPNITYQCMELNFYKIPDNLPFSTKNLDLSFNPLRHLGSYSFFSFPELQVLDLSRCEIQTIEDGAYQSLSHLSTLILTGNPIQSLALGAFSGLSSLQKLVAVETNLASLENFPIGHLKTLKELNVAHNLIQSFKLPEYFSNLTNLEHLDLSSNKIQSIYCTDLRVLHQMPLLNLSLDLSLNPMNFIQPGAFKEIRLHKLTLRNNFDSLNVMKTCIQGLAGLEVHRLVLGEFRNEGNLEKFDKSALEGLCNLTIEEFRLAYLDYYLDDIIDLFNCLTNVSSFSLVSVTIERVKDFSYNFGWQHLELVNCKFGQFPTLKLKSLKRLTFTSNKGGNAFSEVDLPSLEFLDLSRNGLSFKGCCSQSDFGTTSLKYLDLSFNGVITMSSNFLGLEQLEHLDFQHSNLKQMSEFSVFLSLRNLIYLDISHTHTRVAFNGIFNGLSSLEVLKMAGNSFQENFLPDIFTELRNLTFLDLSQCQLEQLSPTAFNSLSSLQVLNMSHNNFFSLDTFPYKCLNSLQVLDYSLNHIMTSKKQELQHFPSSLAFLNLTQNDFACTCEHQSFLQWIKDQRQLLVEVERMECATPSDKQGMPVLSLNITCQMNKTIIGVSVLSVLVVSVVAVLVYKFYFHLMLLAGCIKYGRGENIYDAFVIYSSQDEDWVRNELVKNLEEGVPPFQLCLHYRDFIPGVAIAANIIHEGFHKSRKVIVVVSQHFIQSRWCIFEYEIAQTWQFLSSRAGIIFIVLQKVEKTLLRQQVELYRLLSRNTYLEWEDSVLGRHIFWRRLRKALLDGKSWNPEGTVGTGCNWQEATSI",
  "experiment": "Inhibition of the TLR4 signaling pathway / TLR4 binding",
  "protocol": "These compounds were evaluated for inhibition of the TLR4 signaling pathway in vitro and in vivo.",
  "data": [
    {"smiles": "CCOc1ccc(OCC(O)CN(C)Cc2c(C)nn(Cc3ccccc3Cl)c2C)cc1", "note": "(stereo not shown) [Compound A-1, 1-(((1-(2-chlorobenzyl)-3,5-dimethyl-1H-pyrazol-4-yl)methyl)(methyl)amino)-3-(4-ethoxyphenoxy)propan-2-ol]", "values": [
      {"measurement": "TLR4 binding", "result": "substantially inhibited TLR4 binding"}
    ]}
  ]
}
